Consider five molecules from US11180530B2, “Salt of phenylpropionamide derivative and preparation method therefor” (priority 2017, dated 2021).

Like-named read-outs stand apart in the source and are kept apart here. Where a SMILES comes first, the peptide text is derived from it. [ ]: non-standard residue; d: D form. The star is where a group is joined. Gly(N-(2R-Ph-propyl)) = C[C@@H](CNCC(=O)O)c1ccccc1; Piperidin1yl(4-NH2,4-COOH) = NC1(C(=O)O)CCN(*)CC1

The format of data set [1] is physicochemical. Here is the method:
Samples of the compound represented by formula (I) and acetate, hydrochloride, citrate and phosphate of the compound represented by formula (I) were respectively placed open and evenly spread, so that the stability of the samples were investigated under the conditions of room temperature, heating (40° C., 60° C.), illumination (4500Lux) and high humidity (RH75% and RH90%). The sampling period is 20 days.

Data set [2] is classed as physicochemical. To be noted: for Long-term stability (conclusion in words): with/without nitrogen protection, amorphous samples. Here is the method:
Samples of acetate, hydrochloride, citrate and phosphate of the compound represented by formula (I) were subjected to a long-term accelerated stability investigation for 6 months under dark and sealed conditions (the inner package is a medicinal low-density polyethylene composite film and the outer package is aluminum foil), humidity (60% RH), temperature (4° C., 25° C.) and with/without nitrogen protection.

The subject of data set [3] is inflammatory pain induced by carrageenan in rats. The data set can be described thus: Carrageenan inflammatory pain model, plantar tenderness (Electronic Von Frey). To be noted: for tenderness threshold: 30 min before test, model group 7.6 g. It is filed as in vivo, Wistar rats. The method, then:
Male Wistar rats for experiment purchased from Shanghai Slack Experimental Animal Co, Ltd. (Shanghai, China, certificate No. 2015000513408, license SOCK (Shanghai) 2012-0002, 150-180 g at the time of purchase, 5 rats/cage, 12/12 hour light/dark cycle adjustment, constant temperature of 23±1° C., humidity of 50-60%, free intake of water. After the animals were purchased, they were reared for more than 7 days to start the experiment.
1% λ-carrageenan mixed with physiological saline and stirred overnight, forming a jelly suspension.
The experimental method was improved according to the method in document 1 (Kazunari Nakao et al.). Before the inflammatory pain experiment, rats were randomly divided into the following groups according to body weight: blank control group, model group, 0.1 mg/kg group and 0.3 mg/kg group. There were 8 rats in each group. Inflammatory pain model was established by subcutaneous injection of 1% carrageenan (100 μl) into the foot pad of Wistar rats. After 4 hours, the rats were tested for plantar tenderness to evaluate their mechanical pain threshold, the rats were administrated single caudal vein administration (1 ml/kg) 30 min before the test, and the control group and model group were given the corresponding solvents.
Electronic Von Frey: UGO BASILE, type 38450.
The experimental data were expressed by Mean±standard deviation (S.D.). Statistical comparison was carried out with Excel software T test.

The nature of data set [4]: Solubility (salt formation research). It is filed as physicochemical.
A short description of data set [5]: Canine pharmacokinetic test, intravenous administration. It is filed as in vivo. To be noted: Beagle dogs. An excerpt: Beagle dogs were used as test animals, and LC/MS/MS methods were used to determine the drug concentration in plasma of Beagle dogs at different time points after intravenous administration of the compound represented by formula (I). To study the pharmacokinetic behavior of the compound of the present invention in Beagle dogs and evaluate its pharmacokinetic characteristics.
3 male beagle dogs provided by Medicilon Pharmaceutical Technology (Shanghai) Co, Ltd in each group.
A proper amount of sample was weighted and 100% normal saline was added for dissolution.
Beagle dogs 3, male, for one group; intravenous administration with a volume of 2 ml/kg after fasting for one night.
For the intravenous administration group, 1.0 ml of blood was collected from jugular vein before and 5 mins, 15 mins, 0.5, 1.0, 2.0, 4.0, 8.0, 12.0, 24.0 hrs after administration, then placed in a heparinized test tube, centrifuged at 3500 rpm for 10 mins to separate plasma, and stored at −80° C.
LC/MS/MS method was used to determine the content of compound in Beagle dog plasma after intravenous administration.

[6] abbreviates: 6 months, 4° C., 25° C., 60% RH.
The mark [7] stands for this setting: 25° C., 60% RH, nitrogen protection, 1 month.
Setting [8] is: 25° C., 60% RH, nitrogen protection, 3 months.
Setting [9] is: 25° C., 60% RH, nitrogen protection, 6 months.
The mark [10] stands for this setting: 25° C., 60% RH, nitrogen protection, initial.

In the case of `CC(C)C[C@@H](NC(=O)[C@@H](Cc1ccccc1)NC(=O)CNC[C@H](C)c1ccccc1)C(=O)N[C@H](CCCCN)C(=O)N1CCC(N)(C(=O)O)CC1` [Acetate (1:1)] (H-[Gly(N-(2R-Ph-propyl))][dF][dL][dK]-{Piperidin1yl(4-NH2,4-COOH)}), the “Stability (conclusion in words)” value in data set [1] (illumination, 40° C., 60° C.) is “degraded varying degrees”. For the same molecule, the “Long-term stability (conclusion in words)” value in data set [2] (setting [6]) is on record as “stable”.
`CC(C)C[C@@H](NC(=O)[C@@H](Cc1ccccc1)NC(=O)CNC[C@H](C)c1ccccc1)C(=O)N[C@H](CCCCN)C(=O)N1CCC(N)(C(=O)O)CC1` [Embodiment 9, 4-amino-1-((2R,5R,8R,14R)-2-(4-aminobutyl)-8-benzyl-5-isobutyl-4,7,10-trioxo-14-phenyl-3,6,9,12-tetraazapentadecan-1-acyl)piperidine-4-carboxylic acid] (H-[Gly(N-(2R-Ph-propyl))][dF][dL][dK]-{Piperidin1yl(4-NH2,4-COOH)}): the Purity % is reported as 96.50% in data set [1] (4500 Lux, 0 days (initial)); 95.57% in data set [1] (4500 Lux, 5 days); 94.27% in data set [1] (4500 Lux, 10 days); 94.24% in data set [1] (4500 Lux, 20 days); 99.51% in data set [2] (4° C., 1 month); 99.51% in data set [2] (4° C., 3 months). Moreover, the Purity % in data set [2] (4° C., 6 months) came out at 98.57%; in data set [2] (4° C., initial), 99.54%; in data set [2] (setting [7]), 99.52%; in data set [2] (setting [8]), 99.50%; in data set [2] (setting [9]) it was 98.54%; in data set [2] (setting [10]), 99.54%. Further, the Purity % in data set [2] (25° C., 60% Rh, 1 month) came out at 99.46%; in data set [2] (25° C., 60% Rh, 3 months) it was 99.51%; in data set [2] (25° C., 60% Rh, 6 months), 99.51%; in data set [2] (25° C., 60% Rh, initial), 99.54%. Further, the Aspect entry is given as “White” in data set [2] (4° C., 1 month); “White” in data set [2] (4° C., 3 months); “White” in data set [2] (4° C., 6 months); “White” in data set [2] (4° C., initial).
As for `CC(C)C[C@@H](NC(=O)[C@@H](Cc1ccccc1)NC(=O)CNC[C@H](C)c1ccccc1)C(=O)N[C@H](CCCCN)C(=O)N1CCC(N)(C(=O)O)CC1` [Embodiment 15, 4-amino-1-((2R,5R,8R,14R)-2-(4-aminobutyl)-8-benzyl-5-isobutyl-4,7,10-trioxo-14-phenyl-3,6,9,12-tetraazapentadecan-1-acyl)piperidine-4-carboxylic acid] (H-[Gly(N-(2R-Ph-propyl))][dF][dL][dK]-{Piperidin1yl(4-NH2,4-COOH)}), the Purity % in data set [1] (4500 Lux, 0 days (initial)) was 96.32%; in data set [1] (4500 Lux, 5 days), 96.07%; in data set [1] (4500 Lux, 10 days), 95.62%; in data set [1] (4500 Lux, 20 days) it was 95.76%; in data set [2] (4° C., 1 month), 99.63%; in data set [2] (4° C., 3 months) it was 99.62%. Moreover, the Purity % in data set [2] (4° C., 6 months) is recorded as 99.66%; in data set [2] (4° C., initial), 99.64%; in data set [2] (setting [7]), 9.65%; in data set [2] (setting [8]), 99.62%; in data set [2] (setting [9]), 99.63%; in data set [2] (setting [10]), 99.64%. The Purity % in data set [2] (25° C., 60% Rh, 1 month) worked out at 99.64%; in data set [2] (25° C., 60% Rh, 3 months), 99.63%; in data set [2] (25° C., 60% Rh, 6 months) it was 99.64%; in data set [2] (25° C., 60% Rh, initial), 99.64%.
With `CC(C)C[C@@H](NC(=O)[C@@H](Cc1ccccc1)NC(=O)CNC[C@H](C)c1ccccc1)C(=O)N[C@H](CCCCN)C(=O)N1CCC(N)(C(=O)O)CC1` [Embodiment 20, 4-amino-1-((2R,5R,8R,14R)-2-(4-aminobutyl)-8-benzyl-5-isobutyl-4,7,10-trioxo-14-phenyl-3,6,9,12-tetraazapentadecan-1-acyl)piperidine-4-carboxylic acid] (H-[Gly(N-(2R-Ph-propyl))][dF][dL][dK]-{Piperidin1yl(4-NH2,4-COOH)}), the entries for the “increase range of tenderness threshold compared with the model group” value in data set [3] (0.1 mg/kg i.v.) and in data set [3] (0.3 mg/kg i.v.) were 79.5% and 204.5%, respectively. Moreover, the tenderness threshold in data set [3] (0.1 mg/kg i.v. single) stood at 13.7 g; in data set [3] (0.3 mg/kg i.v. single) it was 23.2 g. For the same molecule, the Purity % in data set [1] (40° C., 5 days) is reported as 97.60%; in data set [1] (4500 Lux, 0 days (initial)) it was 99.68%; in data set [1] (4500 Lux, 5 days) it was 97.76%; in data set [1] (4500 Lux, 10 days), 97.72%; in data set [1] (4500 Lux, 20 days), 97.15%. For the same molecule, in data set [1] (illumination and high temperature, 20 days, listed as free state), the “Stability (conclusion in words)” value is listed as “degraded greatly”. Moreover, the “solubility (in words)” value in data set [4] is “low”. Moreover, in data set [5], the “pharmacokinetic properties (in words)” value was “good”.
`CC(C)C[C@@H](NC(=O)[C@@H](Cc1ccccc1)NC(=O)CNC[C@H](C)c1ccccc1)C(=O)N[C@H](CCCCN)C(=O)N1CCC(N)(C(=O)O)CC1` [Phosphate (1:3)] (H-[Gly(N-(2R-Ph-propyl))][dF][dL][dK]-{Piperidin1yl(4-NH2,4-COOH)}): the “Stability (conclusion in words)” value in data set [1] (illumination and high temperature, 20 days) is listed as “relatively stable or slightly degraded”. Besides, the “Long-term stability (conclusion in words)” value in data set [2] (setting [6]) is on record as “stable”.
